The values that follow come from ChEMBL document CHEMBL4321799, “Development of the First Low Nanomolar Liver Receptor Homolog-1 Agonist through Structure-guided Design” (J Med Chem, 2019).

Structures are written as SMILES. Active and inactive are the calls of the source. The calls are words filed in the database; no cut-off is given here.

The target in assay [1] is Nuclear receptor subfamily 5 group A member 2 (Homo sapiens) (UniProt O00482).
The target in assay [2] is Steroidogenic factor 1 (Homo sapiens) (UniProt Q13285). The assay can be described thus: Agonist activity at recombinant full length SF1 (unknown origin) transfected in human HeLa cells incubated for 24 hrs by renilla luciferase reporter gene assay. Type of assay: cell-based. A general note: A reporter such as luciferase makes a cellular process visible.
Steroidogenic factor 1 (Homo sapiens), sequence (Q13285 whole entry): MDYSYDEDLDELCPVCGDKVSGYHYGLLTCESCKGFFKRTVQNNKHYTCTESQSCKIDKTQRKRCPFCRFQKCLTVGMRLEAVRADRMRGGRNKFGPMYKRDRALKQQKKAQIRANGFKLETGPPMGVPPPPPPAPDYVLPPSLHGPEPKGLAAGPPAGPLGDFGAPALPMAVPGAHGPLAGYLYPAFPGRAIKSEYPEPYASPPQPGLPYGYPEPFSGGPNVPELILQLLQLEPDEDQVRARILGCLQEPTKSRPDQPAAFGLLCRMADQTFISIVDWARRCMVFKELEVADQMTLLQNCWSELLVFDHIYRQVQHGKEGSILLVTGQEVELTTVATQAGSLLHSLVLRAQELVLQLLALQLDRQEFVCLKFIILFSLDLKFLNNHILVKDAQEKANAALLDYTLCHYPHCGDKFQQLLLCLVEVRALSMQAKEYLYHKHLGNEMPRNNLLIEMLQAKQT
Assay [3] has as its system Nuclear receptor subfamily 5 group A member 2 (Homo sapiens), O00482 [T352V]. Briefly: Activation of human full length LRH1 T352V mutant transfected in human HeLa cells at 10 uM incubated for 24 hrs by renilla luciferase reporter gene assay. Type of assay: cell-based.
Assay [4] deals with Nuclear receptor subfamily 5 group A member 2 (Homo sapiens), O00482 [M345L]. The assay can be described thus: Activation of human full length LRH1 M345L mutant transfected in human HeLa cells at 10 uM incubated for 24 hrs by renilla luciferase reporter gene assay. The format is cell-based.
Nuclear receptor subfamily 5 group A member 2 (Homo sapiens), O00482 [M345L], sequence (O00482 whole entry M345L): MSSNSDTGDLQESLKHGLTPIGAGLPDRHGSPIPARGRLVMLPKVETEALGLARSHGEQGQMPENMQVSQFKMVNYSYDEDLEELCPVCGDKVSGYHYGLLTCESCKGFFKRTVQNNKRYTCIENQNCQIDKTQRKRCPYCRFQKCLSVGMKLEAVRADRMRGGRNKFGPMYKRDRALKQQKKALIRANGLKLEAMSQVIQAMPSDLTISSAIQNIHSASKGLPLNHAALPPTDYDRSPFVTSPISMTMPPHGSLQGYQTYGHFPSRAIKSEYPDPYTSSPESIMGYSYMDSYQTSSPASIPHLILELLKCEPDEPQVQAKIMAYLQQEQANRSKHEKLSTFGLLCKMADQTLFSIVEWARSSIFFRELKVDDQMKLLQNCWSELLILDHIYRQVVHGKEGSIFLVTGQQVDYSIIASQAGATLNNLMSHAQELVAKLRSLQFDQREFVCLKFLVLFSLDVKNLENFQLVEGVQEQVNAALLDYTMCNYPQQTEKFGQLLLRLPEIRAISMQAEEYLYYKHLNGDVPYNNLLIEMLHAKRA
Assay [5] concerns Nuclear receptor subfamily 5 group A member 2 (Homo sapiens), O00482 [H390A]. The assay can be described thus: Activation of human full length LRH1 H390A mutant transfected in human HeLa cells at 10 uM incubated for 24 hrs by renilla luciferase reporter gene assay. Type of assay: cell-based.
Nuclear receptor subfamily 5 group A member 2 (Homo sapiens), O00482 [H390A], sequence (O00482 whole entry H390A): as the sequence (O00482 whole entry M345L) above, with L345M, H390A counted along it
The species named for assay [6] is Mus musculus. The assay can be described thus: Effect on Cyp11b1 mRNA expression in LRH1 knock-out mouse enteroids at 1 uM pretreated with TNF-alpha followed incubation with compound for overnight by real-time PCR analysis. The format is functional. Background: Real-time PCR tracks product formation cycle by cycle.
The species named for assay [7] is Mus musculus. The assay can be described thus: Effect on Cyp11a1 mRNA expression in LRH1 knock-out mouse enteroids at 1 uM pretreated with TNF-alpha followed incubation with compound for overnight by real-time PCR analysis. The format is functional.

Nuclear receptor subfamily 5 group A member 2 (Homo sapiens), sequence (O00482 whole entry): as the sequence (O00482 whole entry M345L) above, with L345M counted along it
Nuclear receptor subfamily 5 group A member 2 (Homo sapiens), O00482 [T352V], sequence (O00482 whole entry T352V): as the sequence (O00482 whole entry M345L) above, with L345M, T352V counted along it

As to `C=C(c1ccccc1)[C@@]12CC[C@@H](OS(N)(=O)=O)[C@@H]1CC(CCCCCC)=C2c1ccccc1` (racemic), the ΔTm in assay [1] was in the range of 3 to 8 °C.
On to `C=C(c1ccccc1)[C@@]12CC[C@@H](O)[C@@H]1CC(CCCCCC)=C2c1ccccc1`, for which the outcome in assay [2] was Active.
As for `C=C(c1ccccc1)[C@@]12CC[C@H](OS(N)(=O)=O)[C@@H]1CC(CCCCCC)=C2c1ccccc1` (racemic), the ΔTm in assay [1] is 3 to 8 °C. In assay [2], the outcome was Active.
Regarding `C=C(c1ccccc1)[C@@]12CC[C@H](OS(=O)(=O)NC(N)=O)[C@@H]1CC(CCCCCC)=C2c1ccccc1` (racemic), the ΔTm in assay [1] lay within 3 to 8 °C.
Turning to `C=C(c1ccccc1)[C@@]12CC[C@H](NC(C)=O)[C@@H]1CC(CCCCCC)=C2c1ccccc1` (racemic), the outcome in assay [3] and in assay [4] was Active. Besides, the result in assay [2] and in assay [5] was inactive.
On to `C=C(c1ccccc1)[C@@]12CC[C@H](NS(N)(=O)=O)[C@@H]1CC(CCCCCC)=C2c1ccccc1` (racemic), for which the result in the assay filed under Mus musculus [6] and in the assay listed under Mus musculus [7] was inactive. In addition, the result in assay [2] was Active.
Regarding `C=C(c1ccccc1)[C@@]12CC[C@H](n3ccnn3)[C@@H]1CC(CCCCCC)=C2c1ccccc1` (racemic), the ΔTm in assay [1] was in the range of 3 to 8 °C.

Broadly, the ΔTm is the shift of the melting midpoint relative to a reference.
